Where two headings read alike, the source gives them in different places.
Experiments:
[1] = test system: A549 cells; experiment: MTT cytotoxicity assay, A549 cells; assay type: cell-based, human; details: triplicate; for IC50: Homo sapiens, A549, 72 h culture, 1-100 µM; for reduction of A549 cell viability: 100 µM, 72 h
[2] = test system: MCF-7 cells; experiment: MTT cytotoxicity assay, MCF-7 cells; assay type: cell-based; details: Homo sapiens, triplicate; for inhibition at 100 µM: MCF7, 100 µM, 72 h; for IC50: MCF7, 72 h culture, 1-100 µM
[3] = test system: Jurkat cells; experiment: MTT cytotoxicity assay, Jurkat cells; assay type: cell-based, human; details: for IC50: Homo sapiens, Jurkat, MTT
Description: A549 and MCF-7 human cancer cell lines were cultured in Dulbecco’s Modified Eagle’s Medium (DMEM) (Wako Pure Chemical Industries, Osaka, Japan) supplemented with 10% fetal bovine serum (FBS) (Equitech-Bio, Kerrville, TX, USA). […] All media were supplemented with 89 μg/mL of streptomycin (Meiji Seika Pharma, Tokyo, Japan). […] Cancer cells and PBMCs were seeded into 24-well and 96-well microtiter tissue culture plates (Iwaki, Asahi Glass Co., Chiba, Japan) at densities of 4 × 10^4 cells/mL and 5 × 10^5 cells/mL, respectively, and incubated for 72 h prior to drug treatment. The optimal seeding density for cytotoxicity assays was determined through preliminary testing. […] The cellular reduction MTT (Dojindo Molecular Technologies, Kumamoto, Japan) was assessed following established protocols from the literature, with slight modifications.

[4] = test system: EGFR; details: cited from earlier work; for IC50: Figure 3, read-out: EGFR inhibition: IC50; for EGFR inhibition: Figure 3, concentration not given, ref 36 (7), 11 (11)
[5] = test system: MCF-7 cells; design: method as in ref 31 (1), 32 (2), 33 (3), 35 (6), 37 (8), 38 (9), 39 (10), 11 (11); details: Figure 3; ref 31 (1), 32 (2), 33 (3), 35 (6), 37 (8), 38 (9), 39 (10), 11 (11); cited from earlier work
[6] = test system: A549 cells; design: method as in ref 33 (3), 34 (4, 5), 36 (7), 38 (9), 39 (10), 11 (11); details: Figure 3; ref 33 (3), 34 (4, 5), 36 (7), 38 (9), 39 (10), 11 (11); cited from earlier work
[7] = test system: PBMCs; experiment: MTT cytotoxicity assay, PBMCs (healthy); assay type: cell-based; details: PBMC
Description: A549 and MCF-7 human cancer cell lines were cultured in Dulbecco’s Modified Eagle’s Medium (DMEM) (Wako Pure Chemical Industries, Osaka, Japan) supplemented with 10% fetal bovine serum (FBS) (Equitech-Bio, Kerrville, TX, USA). Jurkat cells, derived from human leukemia, were maintained in RPMI 1640 medium (Wako Pure Chemical Industries) with 10% FBS. PBMCs (Precision Bioservices, Frederick, MD, USA) were cultured in RPMI 1640 medium supplemented with 10% human AB serum (HS) (Gemini, Woodland, CA, USA). All media were supplemented with 89 μg/mL of streptomycin (Meiji Seika Pharma, Tokyo, Japan). Cells were incubated at 37 °C in a humidified atmosphere containing 95% air and 5% CO2. Cancer cells and PBMCs were seeded into 24-well and 96-well microtiter tissue culture plates (Iwaki, Asahi Glass Co., Chiba, Japan) at densities of 4 × 10^4 cells/mL and 5 × 10^5 cells/mL, respectively, and incubated for 72 h prior to drug treatment. The optimal seeding density for cytotoxicity assays was determined through preliminary testing. […] The cellular reduction MTT (Dojindo Molecular Technologies, Kumamoto, Japan) was assessed following established protocols from the literature, with slight modifications.

[8] = ref 31 (1), 33 (3), 35 (6), 37 (8), 38 (9), 39 (10)

In the case of Cc1ccc(C2=NN(c3nc(-c4ccccc4)cs3)C(c3cnc(-c4ccc(Cl)cc4)nc3)C2)cc1 (centres unmarked) [BP-1, 1-(4-Phenylthiazol-2-yl)-3-(4-methylphenyl)-5-(2-(4-chlorophenyl)pyrimidin-5-yl)-2-pyrazoline], the IC50 [1] is reported as greater than 100 µM, the inhibition at 100 µM [2] is reported as 27 to 53% and the IC50 [2] is reported as 91.6 ± 10.2 µM. The IC50 [3] was greater than 100 µM.

Compound Cc1ccc(C2=NN(c3nc(-c4ccc([N+](=O)[O-])cc4)cs3)C(c3cnc(-c4ccc(Cl)cc4)nc3)C2)cc1 (centres unmarked) [BP-2, 1-(4-(4-Nitrophenyl)thiazol-2-yl)-3-(4-methylphenyl)-5-(2-(4-chlorophenyl)pyrimidin-5-yl)-2-pyrazoline] has an inhibition at 100 µM [2] of 27 to 53%.

With Cc1ccc(C2=NN(c3nc(-c4ccc(F)cc4)cs3)C(c3cnc(-c4ccc(Cl)cc4)nc3)C2)cc1 (centres unmarked) [BP-3, 1-(4-(4-Fluorophenyl)thiazol-2-yl)-3-(4-methylphenyl)-5-(2-(4-chlorophenyl)pyrimidin-5-yl)-2-pyrazoline] the inhibition at 100 µM [2] was 27 to 53%.

In the case of Cc1ccc(C2=NN(c3nc(-c4ccc(Cl)cc4)cs3)C(c3cnc(-c4ccc(Cl)cc4)nc3)C2)cc1 (centres unmarked) [BP-4, 1-(4-(4-Chlorophenyl)thiazol-2-yl)-3-(4-methylphenyl)-5-(2-(4-chlorophenyl)pyrimidin-5-yl)-2-pyrazoline], the inhibition at 100 µM [2] is reported as 27 to 53%.

With Cc1ccc(C2=NN(c3nc(-c4ccc(Br)cc4)cs3)C(c3cnc(-c4ccc(Cl)cc4)nc3)C2)cc1 (centres unmarked) [BP-5, 1-(4-(4-Bromophenyl)thiazol-2-yl)-3-(4-methylphenyl)-5-(2-(4-chlorophenyl)pyrimidin-5-yl)-2-pyrazoline] the “reduction of A549 cell viability” value [1] was 21% and the inhibition at 100 µM [2] was 27 to 53%.

Cc1ccc(C2=NN(c3nc(-c4ccc(C#N)cc4)cs3)C(c3cnc(-c4ccc(Cl)cc4)nc3)C2)cc1 (centres unmarked) [BP-6, 1-(4-(4-Cyanophenyl)thiazol-2-yl)-3-(4-methylphenyl)-5-(2-(4-chlorophenyl)pyrimidin-5-yl)-2-pyrazoline] gave an inhibition at 100 µM [2] of 27 to 53%.

With Cc1ccc(C2=NN(c3nc(-c4ccc(C(F)(F)F)cc4)cs3)C(c3cnc(-c4ccc(Cl)cc4)nc3)C2)cc1 (centres unmarked) [BP-7, 1-(4-(4-Trifluoromethylphenyl)thiazol-2-yl)-3-(4-methylphenyl)-5-(2-(4-chlorophenyl)pyrimidin-5-yl)-2-pyrazoline] the “reduction of A549 cell viability” value [1] was 33% and the inhibition at 100 µM [2] was 27 to 53%.

For COc1ccc(C2=NN(c3nc(-c4ccccc4)cs3)C(c3cnc(-c4ccc(Cl)cc4)nc3)C2)cc1 (centres unmarked) [BP-8, 1-(4-Phenylthiazol-2-yl)-3-(4-methoxyphenyl)-5-(2-(4-chlorophenyl)pyrimidin-5-yl)-2-pyrazoline], the inhibition at 100 µM [2] was 27 to 53%.

COc1ccc(C2=NN(c3nc(-c4ccc([N+](=O)[O-])cc4)cs3)C(c3cnc(-c4ccc(Cl)cc4)nc3)C2)cc1 (centres unmarked) [BP-9, 1-(4-(4-Nitrophenyl)thiazol-2-yl)-3-(4-methoxyphenyl)-5-(2-(4-chlorophenyl)pyrimidin-5-yl)-2-pyrazoline] showed an inhibition at 100 µM [2] of 27 to 53%.

For COc1ccc(C2=NN(c3nc(-c4ccc(F)cc4)cs3)C(c3cnc(-c4ccc(Cl)cc4)nc3)C2)cc1 (centres unmarked) [BP-10, 1-(4-(4-Fluorophenyl)thiazol-2-yl)-3-(4-methoxyphenyl)-5-(2-(4-chlorophenyl)pyrimidin-5-yl)-2-pyrazoline], the IC50 [1] was greater than 100 µM, the inhibition at 100 µM [2] was 27 to 53% and the IC50 [2] was 76 ± 9.91 µM. For the same compound, the IC50 [3] was greater than 100 µM.

In the case of COc1ccc(C2=NN(c3nc(-c4ccc(Br)cc4)cs3)C(c3cnc(-c4ccc(Cl)cc4)nc3)C2)cc1 (centres unmarked) [BP-12, 1-(4-(4-Bromophenyl)thiazol-2-yl)-3-(4-methoxyphenyl)-5-(2-(4-chlorophenyl)pyrimidin-5-yl)-2-pyrazoline], the inhibition at 100 µM [2] is reported as 27 to 53%.

For COc1ccc(C2=NN(c3nc(-c4ccc(C#N)cc4)cs3)C(c3cnc(-c4ccc(Cl)cc4)nc3)C2)cc1 (centres unmarked) [BP-13, 1-(4-(4-Cyanophenyl)thiazol-2-yl)-3-(4-methoxyphenyl)-5-(2-(4-chlorophenyl)pyrimidin-5-yl)-2-pyrazoline], the inhibition at 100 µM [2] was 27 to 53%.

With COc1ccc(C2=NN(c3nc(-c4ccc(C(F)(F)F)cc4)cs3)C(c3cnc(-c4ccc(Cl)cc4)nc3)C2)cc1 (centres unmarked) [BP-14, 1-(4-(4-Trifluoromethylphenyl)thiazol-2-yl)-3-(4-methoxyphenyl)-5-(2-(4-chlorophenyl)pyrimidin-5-yl)-2-pyrazoline] the inhibition at 100 µM [2] was 27 to 53%.

In the case of Cc1ccc(C2=NN(c3nc(-c4ccc(Cl)cc4)cs3)C(c3ccc(F)cc3)C2)cc1C (centres unmarked) [Compound 1], the IC50 [4, 8] is listed as 0.06 µM and the IC50 [5] is listed as 0.07 µM.

For COc1ccc2nc(Cl)c(C3CC(c4ccc(C)cc4)=NN3c3nc(-c4ccc(F)cc4)cs3)cc2c1 (centres unmarked) [Compound 2], the IC50 ([4]; ref 32 (2), 34 (4, 5)) is given as 0.0318 µM and the IC50 [5] is given as 0.227 µM.

In the case of N#Cc1ccc(-c2csc(N3N=C(c4ccc(N5CCOCC5)cc4)CC3c3ccc(Cl)cc3)n2)cc1 (centres unmarked) [Compound 3], the IC50 [6] is given as 10.8 µM, the IC50 [4, 8] is given as 4.34 µM and the IC50 [5] is given as 8.05 µM.

In the case of CCOC(=O)c1sc(N2N=C(c3ccc(Cl)cc3Cl)CC2c2ccc(OC)cc2)nc1C (centres unmarked) [Compound 4], the IC50 [6] is given as 4.22 µM and the IC50 ([4]; ref 32 (2), 34 (4, 5)) is given as 0.0407 µM.

In the case of COc1ccc(C2CC(c3ccc(Cl)cc3Cl)=NN2c2nc(C)c(C(=O)Nc3ccccc3)s2)cc1OC (centres unmarked) [Compound 5], the IC50 [6] is given as 2.92 µM and the IC50 ([4]; ref 32 (2), 34 (4, 5)) is given as 0.0325 µM.

In the case of COc1ccc(C2CC(c3ccc(OC)c(OC)c3)=NN2c2nc(-c3ccccc3)cs2)cc1 (centres unmarked) [Compound 6], the IC50 [4, 8] is listed as 0.009 µM and the IC50 [5] is listed as 7.21 µM.

In the case of Clc1ccc(C2CC(c3ccc4ccccc4c3)=NN2c2nc(-c3ccc(Br)cc3)cs2)cc1 (centres unmarked) [Compound 7], the IC50 [6] is given as 9.51 µM and the EGFR inhibition [4] is given as 58%.

For CCc1nnc2c(Nc3ccc(C(=O)/C=C/c4ccc(OC)cc4)cc3)nc3ccccc3n12 [Compound 8], the IC50 [4, 8] is given as 0.083 ± 0.04 µM and the IC50 [5] is given as 8.23 ± 0.25 µM.

For Cn1c(=O)c2[nH]c(SCC(=O)Nc3ccc(C(=O)/C=C/c4ccc(Cl)cc4)cc3)nc2n(C)c1=O [Compound 9], the IC50 [6] is given as 1.8 ± 0.7 µM and the IC50 [5] is given as 1.3 ± 0.9 µM.

In the case of C=CCn1c(SCC(=O)Nc2ccc(C(=O)/C=C/c3ccc(Cl)cc3)cc2)nnc1-c1cc(-c2ccccc2)nc2ccccc12 [Compound 10], the IC50 [6] is given as 3.6 ± 0.05 µM, the IC50 [4, 8] is given as 1.3 ± 1.2 µM and the IC50 [5] is given as 3.3 ± 0.08 µM.

For COc1ccc(C(=O)/C=C/c2cnc(-c3ccc(Cl)cc3)nc2)cc1OC [Compound 11], the IC50 [6] is given as 20.5 ± 2.7 µM, the EGFR inhibition [4] is given as 46% and the IC50 [5] is given as 6.7 ± 1.02 µM.

With Cc1ccc(C2=NN(C(N)=S)C(c3cnc(-c4ccc(Cl)cc4)nc3)C2)cc1 (centres unmarked) [Compound B-6, 3-(4-Methylphenyl)-5-(2-(4-chlorophenyl)pyrimidin-5-yl)-1-thiocarbamoyl-2-pyrazoline] the “reduction of A549 cell viability” value [1] was 44%, the IC50 [1] was greater than 100 µM and the IC50 [7] was 113 ± 15.1 µM. It also gave an inhibition at 100 µM [2] of 79%, an IC50 [2] of 6.52 ± 0.97 µM and an IC50 [3] of 15.1 ± 2.85 µM. The “SI (Selectivity Index)” value ([3]; IC50 for PBMC/IC50 for Jurkat cell line) was 7.49.

For COc1ccc(C2=NN(C(N)=S)C(c3cnc(-c4ccc(Cl)cc4)nc3)C2)cc1 (centres unmarked) [Compound B-7, 3-(4-methoxyphenyl)-5-(2-(4-chlorophenyl)pyrimidin-5-yl)-1-thiocarbamoyl-2-pyrazoline], the “reduction of A549 cell viability” value [1] was 35% and the inhibition at 100 µM [2] was 39%.

For CS(=O)(=O)CCNCc1ccc(-c2ccc3ncnc(Nc4ccc(OCc5cccc(F)c5)c(Cl)c4)c3c2)o1 [Lapatinib, lapatinib, reference compound], the IC50 [7] was 11 ± 2.47 µM.

— paper PMC12346557, “Design, Synthesis, and Anticancer Evaluation of New Small-Molecule EGFR Inhibitors Targeting NSCLC and Breast Cancer” (International Journal of Molecular Sciences, 2025)
